Results: US10758534B2 (Vertex Pharmaceuticals Incorporated, priority 2014, dated 2020)

target: T1, F508del (Homo sapiens, UniProt P13569, DEL508-508); experiment: Protocol 2: FRET membrane potential optical assay (VIPR), identification of correction compounds; type: cell-based; settings: Table 3; compounds of Table 1 as modulators of CFTR activity; protocol not stated
T1 construct: expressed in transfected cells
In short: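 Corrector readout: membrane-potential FRET (CC2-DMPE donor, DiSBAC2(3) acceptor) on VIPR II after Cl⁻-free gluconate bath with 10 μM forskolin and 20 μM genistein. Before this, F508del-expressing NIH3T3 cells were exposed to test compound for 16 h at 37 °C without serum; 27 °C incubation served as temperature-correction control.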

T1 sequence (P13569 with tags, fused parts or gaps DEL508-508): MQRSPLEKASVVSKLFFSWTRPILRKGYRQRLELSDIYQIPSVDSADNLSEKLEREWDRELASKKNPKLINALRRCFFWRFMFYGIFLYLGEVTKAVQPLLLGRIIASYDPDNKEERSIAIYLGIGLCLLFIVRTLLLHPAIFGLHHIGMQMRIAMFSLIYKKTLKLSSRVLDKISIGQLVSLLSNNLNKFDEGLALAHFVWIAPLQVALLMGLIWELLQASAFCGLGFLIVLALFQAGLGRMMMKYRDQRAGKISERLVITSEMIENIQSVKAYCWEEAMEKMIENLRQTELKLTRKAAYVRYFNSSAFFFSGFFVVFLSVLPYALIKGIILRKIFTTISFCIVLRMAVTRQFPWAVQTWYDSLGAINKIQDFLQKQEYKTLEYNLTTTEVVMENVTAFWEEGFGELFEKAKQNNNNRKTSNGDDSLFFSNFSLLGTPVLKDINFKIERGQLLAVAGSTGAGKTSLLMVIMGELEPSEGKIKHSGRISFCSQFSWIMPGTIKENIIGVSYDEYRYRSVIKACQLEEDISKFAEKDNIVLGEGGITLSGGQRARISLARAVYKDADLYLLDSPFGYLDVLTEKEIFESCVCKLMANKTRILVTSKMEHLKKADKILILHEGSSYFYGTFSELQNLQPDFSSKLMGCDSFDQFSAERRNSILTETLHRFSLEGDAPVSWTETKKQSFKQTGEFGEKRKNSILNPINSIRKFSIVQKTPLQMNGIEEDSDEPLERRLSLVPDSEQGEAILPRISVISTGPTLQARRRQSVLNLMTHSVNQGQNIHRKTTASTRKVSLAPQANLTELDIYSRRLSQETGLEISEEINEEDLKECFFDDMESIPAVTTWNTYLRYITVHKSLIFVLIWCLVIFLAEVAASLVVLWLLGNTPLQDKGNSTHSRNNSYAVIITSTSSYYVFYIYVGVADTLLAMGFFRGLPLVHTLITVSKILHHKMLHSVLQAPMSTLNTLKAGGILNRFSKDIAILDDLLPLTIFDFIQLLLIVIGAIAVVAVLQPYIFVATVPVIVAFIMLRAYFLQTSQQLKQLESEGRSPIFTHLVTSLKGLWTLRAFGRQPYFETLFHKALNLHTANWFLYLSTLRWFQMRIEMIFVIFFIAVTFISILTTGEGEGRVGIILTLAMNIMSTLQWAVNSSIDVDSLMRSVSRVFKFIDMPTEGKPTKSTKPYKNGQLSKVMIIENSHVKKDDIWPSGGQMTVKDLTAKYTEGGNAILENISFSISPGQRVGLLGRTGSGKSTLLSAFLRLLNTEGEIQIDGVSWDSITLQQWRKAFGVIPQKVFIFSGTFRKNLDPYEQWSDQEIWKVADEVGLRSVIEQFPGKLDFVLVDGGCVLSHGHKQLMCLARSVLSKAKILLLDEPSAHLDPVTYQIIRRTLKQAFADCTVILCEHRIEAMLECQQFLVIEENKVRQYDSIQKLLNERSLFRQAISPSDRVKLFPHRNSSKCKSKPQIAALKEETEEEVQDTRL

EC30 | SMILES
+++ (“+++” means <3 uM) | Cc1cc(C)c(Oc2nc(C(C)(C)C)ccc2C(=O)NS(=O)(=O)c2ccc[nH]c2=O)c(C)c1 [Compound 51, 6-tert-butyl-N-[(2-oxo-1H-pyridin-3-yl)sulfonyl]-2-(2,4,6-trimethylphenoxy)pyridine-3-carboxamide]
+++ (“+++” means <3 uM) | Cc1cc(C)cc(-c2nc(C(C)(C)C)ccc2C(=O)NS(=O)(=O)c2cccc(N)c2)c1 [Compound 52, N-(3-aminophenyl)sulfonyl-6-tert-butyl-2-(3,5-dimethylphenyl)pyridine-3-carboxamide]
++ (“++” means between 3 uM and 10 uM) | Cc1cc(C)c(Oc2nc(C3CC3)cc(C(F)(F)F)c2C(=O)NS(=O)(=O)c2cccc(N)n2)c(C)c1 [Compound 54, N-[(6-amino-2-pyridyl)sulfonyl]-6-cyclopropyl-4-(trifluoromethyl)-2-(2,4,6-trimethylphenoxy)pyridine-3-carboxamide]
++ (“++” means between 3 uM and 10 uM) | Cc1ccc(Oc2nc(C(C)(C)C)ccc2C(=O)NS(=O)(=O)c2ccc[nH]c2=O)c(C)c1 [Compound 55, 6-tert-butyl-2-(2,4-dimethylphenoxy)-N-[(2-oxo-1H-pyridin-3-yl)sulfonyl]pyridine-3-carboxamide]
+++ (“+++” means <3 uM) | COc1cccc(S(=O)(=O)NC(=O)c2ccc(C(C)(C)C)nc2Oc2c(C)cc(C)cc2C)c1 [Compound 56, 6-tert-butyl-N-(3-methoxyphenyl)sulfonyl-2-(2,4,6-trimethylphenoxy)pyridine-3-carboxamide]
+++ (“+++” means <3 uM) | Cc1cccc(C)c1Cn1nc(C(C)(C)C)cc1C(=O)NS(=O)(=O)c1ccccc1F [Compound 57, 5-tert-butyl-2-[(2,6-dimethylphenyl)methyl]-N-(2-fluorophenyl)sulfonyl-pyrazole-3-carboxamide]
++ (“++” means between 3 uM and 10 uM) | Cc1ccc(-c2nc(C(C)(C)C)ccc2C(=O)NS(=O)(=O)c2cccc(N)n2)cc1 [Compound 58, N-[(6-amino-2-pyridyl)sulfonyl]-6-tert-butyl-2-(p-tolyl)pyridine-3-carboxamide]
+++ (“+++” means <3 uM) | COc1c(C)cccc1S(=O)(=O)NC(=O)c1cc(C(C)(C)C)nn1Cc1c(C)cccc1C [Compound 59, 5-tert-butyl-2-[(2,6-dimethylphenyl)methyl]-N-(2-methoxy-3-methyl-phenyl)sulfonyl-pyrazole-3-carboxamide]
+++ (“+++” means <3 uM) | Cc1c(Cn2nc(C(C)(C)C)cc2C(=O)NS(=O)(=O)c2cccc3[nH]ccc23)cccc1C(F)(F)F [Compound 60, 5-tert-butyl-N-(1H-indol-4-ylsulfonyl)-2-[[2-methyl-3-(trifluoromethyl)phenyl]methyl]pyrazole-3-carboxamide]
+++ (“+++” means <3 uM) | CCOc1cccc(-c2ccc(C(=O)NS(=O)(=O)c3cccc(N)n3)c(Oc3c(C)cc(C)cc3C)n2)c1 [Compound 61, N-[(6-amino-2-pyridyl)sulfonyl]-6-(3-ethoxyphenyl)-2-(2,4,6-trimethylphenoxy)pyridine-3-carboxamide]
+++ (“+++” means <3 uM) | Cc1cc(C)c(Cn2c(C(=O)NS(=O)(=O)c3cccc(N)c3)cc3ccc(C)cc32)c(C)c1 [Compound 62, N-(3-aminophenyl)sulfonyl-6-methyl-1-[(2,4,6-trimethylphenyl)methyl]indole-2-carboxamide]
+++ (“+++” means <3 uM) | Cc1cc(C)c(Cc2nn(C(C)(C)C)cc2C(=O)NS(=O)(=O)c2ccccc2)c(C)c1 [Compound 63, N-(benzenesulfonyl)-1-tert-butyl-3-[(2,4,6-trimethylphenyl)methyl]pyrazole-4-carboxamide]
++ (“++” means between 3 uM and 10 uM) | Cc1cc(C)c(Oc2nc(-c3cnc(C(C)C)nc3)ccc2C(=O)NS(=O)(=O)c2cccc(N)n2)c(C)c1 [Compound 64, N-[(6-amino-2-pyridyl)sulfonyl]-6-(2-isopropylpyrimidin-5-yl)-2-(2,4,6-trimethylphenoxy)pyridine-3-carboxamide]
++ (“++” means between 3 uM and 10 uM) | Cc1cc(C)c(Cn2c(C(=O)NS(=O)(=O)c3ccncc3)cc3cc(Cl)ccc32)c(C)c1 [Compound 65, 5-chloro-N-(4-pyridylsulfonyl)-1-[(2,4,6-trimethylphenyl)methyl]indole-2-carboxamide]
+++ (“+++” means <3 uM) | COCc1ccc(-c2ccc(C(=O)NS(=O)(=O)c3cccc(N)n3)c(Oc3c(C)cc(C)cc3C)n2)cc1 [Compound 66, N-[(6-amino-2-pyridyl)sulfonyl]-6-[4-(methoxymethyl)phenyl]-2-(2,4,6-trimethylphenoxy)pyridine-3-carboxamide]
++ (“++” means between 3 uM and 10 uM) | Cc1ccc2c(c1)cc(C(=O)NS(=O)(=O)c1cccc(N)n1)n2Cc1c(C)cc(C#N)cc1C [Compound 67, N-[(6-amino-2-pyridyl)sulfonyl]-1-[(4-cyano-2,6-dimethyl-phenyl)methyl]-5-methyl-indole-2-carboxamide]
+++ (“+++” means <3 uM) | Cc1cc(C)c(Oc2nc(C(C)(C)C)ncc2C(=O)NS(=O)(=O)c2cccc(N)c2)c(C)c1 [Compound 68, N-(3-aminophenyl)sulfonyl-2-tert-butyl-4-(2,4,6-trimethylphenoxy)pyrimidine-5-carboxamide]

EC30 | SMILES
+++ (“+++” means <3 uM) | COCc1cccc(-c2ccc(C(=O)NS(=O)(=O)c3cccc(N)n3)c(Oc3c(C)cc(C)cc3C)n2)c1 [Compound 69, N-[(6-amino-2-pyridyl)sulfonyl]-6-[3-(methoxymethyl)phenyl]-2-(2,4,6-trimethylphenoxy)pyridine-3-carboxamide]
+++ (“+++” means <3 uM) | Cc1cc(C)c(Oc2nc3c(C)cccc3cc2C(=O)NS(=O)(=O)c2cccc(N)n2)c(C)c1 [Compound 70, N-[(6-amino-2-pyridyl)sulfonyl]-8-methyl-2-(2,4,6-trimethylphenoxy)quinoline-3-carboxamide]
+++ (“+++” means <3 uM) | Cc1cc(C)c(Cn2c(C(=O)NS(=O)(=O)c3cccc(N)c3)nc3ccccc32)c(C)c1 [Compound 71, N-(3-aminophenyl)sulfonyl-1-[(2,4,6-trimethylphenyl)methyl]benzimidazole-2-carboxamide]
++ (“++” means between 3 uM and 10 uM) | CCCOc1cc(-c2ccc(C(=O)NS(=O)(=O)c3ccc[nH]c3=O)c(Oc3c(C)cc(C)cc3C)n2)ccc1Cl [Compound 72, 6-(4-chloro-3-propoxy-phenyl)-N-[(2-oxo-1H-pyridin-3-yl)sulfonyl]-2-(2,4,6-trimethylphenoxy)pyridine-3-carboxamide]
+++ (“+++” means <3 uM) | Cc1cc(C)c(CN2Cc3ccccc3C2C(=O)NS(=O)(=O)c2cccc(N)n2)c(C)c1 (stereo not drawn) [Compound 73, N-[(6-amino-2-pyridyl)sulfonyl]-2-[(2,4,6-trimethylphenyl)methyl]isoindoline-1-carboxamide]
+++ (“+++” means <3 uM) | Cc1ccc(-c2nc(C(C)(C)C)ccc2C(=O)NS(=O)(=O)c2ccccc2)cc1 [Compound 74, N-(benzenesulfonyl)-6-tert-butyl-2-(p-tolyl)pyridine-3-carboxamide]
++ (“++” means between 3 uM and 10 uM) | COc1cccc(S(=O)(=O)NC(=O)c2ccc(C(C)(C)C)nc2-c2ccc(C)cc2)n1 [Compound 75, 6-tert-butyl-N-[(6-methoxy-2-pyridyl)sulfonyl]-2-(p-tolyl)pyridine-3-carboxamide]
+++ (“+++” means <3 uM) | Cc1cccc(C)c1Cn1nc(-c2ccc(N(C)C)cc2)cc1C(=O)NS(=O)(=O)c1ccccc1 [Compound 76, N-(benzenesulfonyl)-5-(4-dimethylaminophenyl)-2-[(2,6-dimethylphenyl)methyl]pyrazole-3-carboxamide]
+++ (“+++” means <3 uM) | Cc1cccc(C)c1Cn1nc(C(C)(C)C)cc1C(=O)NS(=O)(=O)c1cccs1 [Compound 77, 5-tert-butyl-2-[(2,6-dimethylphenyl)methyl]-N-(2-thienylsulfonyl)pyrazole-3-carboxamide]
+++ (“+++” means <3 uM) | Cc1cc(C)c(Oc2nc(C(C)(C)C)ccc2C(=O)NS(=O)(=O)c2ccccc2C#N)c(C)c1 [Compound 78, 6-tert-butyl-N-(2-cyanophenyl)sulfonyl-2-(2,4,6-trimethylphenoxy)pyridine-3-carboxamide]
++ (“++” means between 3 uM and 10 uM) | COc1ccccc1S(=O)(=O)NC(=O)C1c2ccccc2CN1Cc1c(C)cc(C)cc1C (stereo not drawn) [Compound 79, N-(2-methoxyphenyl)sulfonyl-2-[(2,4,6-trimethylphenyl)methyl]isoindoline-1-carboxamide]
+++ (“+++” means <3 uM) | Cc1cccc(S(=O)(=O)NC(=O)c2cc(C(C)(C)C)nn2Cc2c(C)cc(C)cc2C)c1 [Compound 80, 5-tert-butyl-N-(m-tolylsulfonyl)-2-[(2,4,6-trimethylphenyl)methyl]pyrazole-3-carboxamide]
+++ (“+++” means <3 uM) | Cc1cccc(C)c1Cn1nc(C(C)(C)C)cc1C(=O)NS(=O)(=O)c1ccc(N)cc1 [Compound 81, N-(4-aminophenyl)sulfonyl-5-tert-butyl-2-[(2,6-dimethylphenyl)methyl]pyrazole-3-carboxamide]
+++ (“+++” means <3 uM) | Cc1cc(C)c(Cn2c(C(=O)NS(=O)(=O)c3ccncc3)cc3c(Cl)cccc32)c(C)c1 [Compound 82, 4-chloro-N-(4-pyridylsulfonyl)-1-[(2,4,6-trimethylphenyl)methyl]indole-2-carboxamide]
+++ (“+++” means <3 uM) | Cc1cccc(C)c1Cn1nc(-c2cccc(Cl)c2)cc1C(=O)NS(=O)(=O)c1ccccc1 [Compound 83, N-(benzenesulfonyl)-5-(3-chlorophenyl)-2-[(2,6-dimethylphenyl)methyl]pyrazole-3-carboxamide]
+++ (“+++” means <3 uM) | Cc1cc(C)c(Cn2nc(C(C)(C)C)cc2C(=O)NS(=O)(=O)c2cccc(O)c2)c(C)c1 [Compound 84, 5-tert-butyl-N-(3-hydroxyphenyl)sulfonyl-2-[(2,4,6-trimethylphenyl)methyl]pyrazole-3-carboxamide]
